Experimental data published in patent US4873249A, “Pharmaceutical composition” (EGIS Gyogyszergyar, priority 1986, dated 1989).
pIC50: −log10 of the molar value. Where two headings read alike, the source gives them in different places.

What was measured:
[1] = tested on: acetic-acid writhing reactions in mice; test: animal or person; format: in vivo; conditions: Mus musculus, po, 1 h, read-out: Writhing test ID50
Protocol: (§1) Between the 5th and 10th minute after the administration of acetic acid total number of the typical writhing reactions was counted, and expressed as percentage of the control. The experiments were performed in groups of at least 12 mice; measurements were done 60 min. after oral application of the test compounds.

[2] = tested on: carrageenin-induced oedema in rats; test: Carrageenin-induced oedema test in rats; format: in vivo; conditions: 3 h after carrageenin
Protocol: Inhibitory activity in carrageenin-induced oedema test was assessed in rats using the technique of Winter at al. (1962). Carageenin (0.1 ml of 1.0% solution) was injected into the plantar surface of the hind paw of rats weighing 130-160 g. Rats were fasted for 12 hours and received drinking water ad libitum. One hour before treatment with the test compound animals were hydrated orally with 30 ml/kg of tap water. The test compounds or the vehicle were administered p.o. in a volume of 10 ml/kg, then two hours later carrageenin was applied. The paw volume was determined in a plethysmometer prior to and 3 hours after administration of the irritant.

[3] = tested on: Wistar rats; conditions: from Barron et al. 1968, 20160 min; cited from earlier work
[4] = tested on: gastric mucosa of rats; test: Measurement of ulcerogenic activity; format: in vivo
[5] = tested on: PHA stimulated granulocytes; test: Chemiluminescence of PHA stimulated granulocytes; format: cell-based, human (healthy volunteers); conditions: Homo sapiens, read-out: IC50, chemiluminescence of PHA stimulated granulocytes
Protocol: (§2) Heparinized blood (10 IU/ml) was taken from healthy volunteers. The blood diluted with equal volume of dextran, the white blood cells were separated by sedimentation. The granulocytes were separated by Uromio gradient. […] The cell suspension was put in dark box for 15 min. Luminol was dissolved in concentrated NH4 OH and diluted in the following solution:
(§3) 50 ml Tris-Parker medium (containing 1.2 g Tris, pH=7.4)
(§4) 4 ml glucose 40% w/v in water
(§5) The Luminol solution (500 μl) was measured in plastic vials and put in dark (37° C.). The reaction was started by addition of the cells and stimulating agent (Phytohaemaglutinin-PHA 10 μg/ml).
(§6) The vials were continuously and gently shaken and the PHA stimulation was measured in every 2.5 min. for 15 min. in a Beckmann LS-100 spectrometer (coincidence switched off). The percentage of the counts measured was calculated in comparison with the solvent treated control cells. At least 5 concentrations of each compound were investigated in at least 3 parallels.

[6] = tested on: acetic acid writhing reactions in rats; test: Writhing test in rats (acetic acid); conditions: Rattus norvegicus, po, 1 h, read-out: Writhing test ID50
Protocol: (§7) Five minutes after treatment with acetic acid, total number of characteristic writhing reactions was counted for 10 minutes and expressed as percentage of the control group.

[7] = Writhing test in rats (acetic acid); conditions: rat, in vivo, po
Protocol: as §7

[8] = tested on: mononuclear cells; test: Chemiluminescence of PHA stimulated mononuclear cells; format: cell-based, human (healthy volunteers)
Protocol: as §2, §3, §4, §5, §6

[9] = in vivo; format: in vivo; conditions: mouse, in vivo, po; mice, LD50/writhing ID50; read-out: TI (therapeutic index)
Protocol: as §1

[10] = tested on: brewer's yeast induced fever in rats; test: Antipyretic activity in rats (brewer's yeast fever); format: in vivo, Wistar rats
Protocol: The experiments were performed in groups of 10 Wistar rats of both sexes weighing 160-200 g. Fever was induced by 20% brewer's yeast suspended in 0.9% saline solution, applied subcutaneously in a volume of 2 ml/rat distributed at various sites of the back. After 18 hours the test compound or the vehicle was administered in a volume of 10 ml/kg p.o. During this period the rats were fasted but received drinking water ad libitum. The rectal temperature of the animals was measured with a Thermotest thermometer 2 days before injection of the fever inducer, then before the application of the test compound and after treatment in every 60th min. Animals with increase in body temperature less than 0.8° C. were excluded. The results were evaluated according to the statistical method of Duncan.

[11] = in vivo; conditions: mouse, po
Protocol: The observation period after treatment lasted for 14 days.
Statistical evaluation was carried out as described by Litchfield-Wilcoxon's method.

[12] = tested on: adjuvant arthritis in rats; test: Adjuvant arthritis in rats; format: in vivo, Long Evans rats; conditions: for Paw swelling, % Right: injected right hindpaw, day 10 (primary response); for % inhibition Left: left hindpaw, secondary response; for % inhibition Right: right hindpaw, primary response; for Paw swelling, % Left: uninjected left hindpaw, day 15 (secondary response)
[13] = Chemiluminescence induced by H2O2 in cell free medium
[14] = tested on: gastric secretion in rats; test: Effect on gastric secretion in rats (Shay, pylorus ligation); format: in vivo, Wistar rats; conditions: for Gastric juice / Free acid content / Total acid content: per 100 g body weight; for Free acid content / Total acid content: titration with 0.1 N NaOH
Protocol: The experiments were carried out following the surgical method of Shay et al. (1946). Fasted Wistar rats weighing 200-250 g were used. During a 48 hours, starving period rats received drinking water ad libitum. The experimental groups consisted of 4 males and 4 females.
On the day of experiment the pylorus of rats was ligated under ether anaesthesia. […] The control groups were treated simultaneously with identical volumes of vehicle in identical route of administration.
Four hours after operation rats were killed with ether, their stomach was removed after cardia ligature, the stomach contents were separated and after centrifugation the volume of the gastric juice was measured. The free acid and total acid content were assayed by titration with 0.1 N NaOH.
The results were individually transformed for 100 g body weight and statistically evaluated by Wilcoxon's method.

[15] = 200 mg/kg p.o., 1 hour following treatment
[16] = 200 mg/kg p.o., 3 hours following treatment
[17] = 200 mg/kg p.o., 5 hours following treatment

Compound `CC(=O)Nc1ccc(O)cc1` [Paracetamol, 4-hydroxy-acetanilide] has an ED50 [1] of 180 mg/kg.
In the case of `COc1ccc2c(c1)c(CC(=O)O)c(C)n2C(=O)c1ccc(Cl)cc1` [Indomethacin, 1-(p-chloro-benzoyl)-5-methoxy-2-methyl-1H-indole-3-acetic acid], the “% inhibition of carrageenin-induced oedema” value ([2]; 1 mg/kg p.o.) is listed as 40.3%, the LD50 [3] is listed as 25.5 mg/kg and the Ulcus-index ([4]; 5 mg/kg orally 6 and 16 h before decapitation) is listed as 0.2. The Ulcus-index ([4]; 10 mg/kg orally 6 and 16 h before decapitation) was 1.2, the Ulcus-index ([4]; 20 mg/kg orally 6 and 16 h before decapitation) was 3.0 and the “Effect on ulcus-index (in words)” value ([4]; oral, over the doses of Table 4) was “increases does dependently the ulcus-index”. For the same compound, the pIC50 [5] was less than 4.00, the ED50 [6] was 4.7 mg/kg and the selectivity ratio [7] was 5.4.
With `CN1C(C(=O)Nc2ccccn2)=C(O)c2ccccc2S1(=O)=O` [Piroxicam, 4-hydroxy-2-methyl-N-2-pyridyl-2H-1,2-benzothiazine-3-carboxamide-1,1-dioxide] the pIC50 ([5]; PHA 10 μg/ml, Luminol 32 μM) was 4.00 and the “Activity on chemiluminescence in mononuclear cells” value [8] was “inactive”.
In the case of `CC(=O)Oc1ccccc1C(=O)O` [Acetylsalicylic acid], the “% inhibition of carrageenin-induced oedema” value ([2]; 100 mg/kg p.o.) was 29.5%, the ED50 [1] was 261 mg/kg and the selectivity ratio [9] was 5.2. The “Decrease in body temperature” value [10, 15] was 0.7 °C, the “Decrease in body temperature” value [10, 16] was 1.0 °C and the “Decrease in body temperature” value [10, 17] was 1.0 °C. For the same compound, the LD50 at 336 h [11] was 1350 mg/kg.
With `CCCCC1C(=O)N(c2ccccc2)N(c2ccccc2)C1=O` [Phenylbutazone, 3,5-dioxo-1,2-diphenyl-4-(n-butyl)-pyrazolidine] the “Paw swelling, % Right” value ([12]; 30 mg/kg p.o. once daily) was 94.6%, the “% inhibition Left” value ([12]; 30 mg/kg p.o. once daily) was -49.6% and the “% inhibition Right” value ([12]; 30 mg/kg p.o. once daily) was -19.2%. The “Paw swelling, % Left” value ([12]; 30 mg/kg p.o. once daily) was 36.7%, the “% inhibition of carrageenin-induced oedema” value ([2]; 25 mg/kg p.o.) was 56.6% and the ED50 [1] was 100 to 200 mg/kg. The pIC50 ([5]; PHA 10 μg/ml, Luminol 32 μM) was 4.00, the ED50 [6] was 19.7 mg/kg and the “Activity on chemiluminescence in mononuclear cells” value [8] was “inactive”.
In the case of `Cc1c(N(C)C)c(=O)n(-c2ccccc2)n1C` [Amidazophen, 1-phenyl-2,3-dimethyl-4-dimethylamino-pyrazolone-5, reference compound], the “Decrease in body temperature” value [10, 15] was 2.7 °C, the “Decrease in body temperature” value [10, 16] was 2.3 °C and the “Decrease in body temperature” value [10, 17] was 1.7 °C.
For `COc1ccc(Cc2cnc(N)nc2N)cc1OC` [Compound A, 2,4-diamino-5-(3,4-dimethoxybenzyl)-pyrimidine], the “Paw swelling, % Right” value ([12]; 100 mg/kg p.o. once daily) was 56.9%, the “% inhibition Left” value ([12]; 100 mg/kg p.o. once daily) was -47.1% and the “% inhibition Right” value ([12]; 100 mg/kg p.o. once daily) was -51.4%. The “Paw swelling, % Left” value ([12]; 100 mg/kg p.o. once daily) was 38.5%, the “Influence on chemiluminescence induced by H2O2” value [13] was “did not influence” and the “% inhibition of carrageenin-induced oedema” value ([2]; 125 mg/kg p.o.) was 42.0%. The Gastric juice ([14]; 250 mg/kg orally) was 3.01 mL, the Free acid content ([14]; 250 mg/kg orally) was 2.17 mL and the Total acid content ([14]; 250 mg/kg orally) was 4.33 mL. It also gave a Gastric juice ([14]; 500 mg/kg orally) of 2.93 mL, a Free acid content ([14]; 500 mg/kg orally) of 2.18 mL and a Total acid content ([14]; 500 mg/kg orally) of 4.40 mL. It also gave a Gastric juice ([14]; 1000 mg/kg orally) of 2.23 mL, a Free acid content ([14]; 1000 mg/kg orally) of 1.24 mL and a Total acid content ([14]; 1000 mg/kg orally) of 3.18 mL. For the same compound, the inhibition at 250 mg/kg ([14]; Rattus norvegicus, 250 mg/kg, + = increase, - = decrease, read-out: % inhibition compared to the control, Gastric juice) was 17.3%, the Percent change from control (+ = increase, - = decrease) at 250 mg/kg ([14]; Rattus norvegicus, 250 mg/kg, read-out: % inhibition compared to the control, Free acid content) was -23% and the inhibition at 250 mg/kg ([14]; Rattus norvegicus, 250 mg/kg, read-out: % inhibition compared to the control, Total acid content) was 11.8%. The inhibition at 500 mg/kg ([14]; Rattus norvegicus, 500 mg/kg, + = increase, - = decrease, read-out: % inhibition compared to the control, Gastric juice) was 15.2%, the Percent change from control (+ = increase, - = decrease) at 500 mg/kg ([14]; Rattus norvegicus, 500 mg/kg, read-out: % inhibition compared to the control, Free acid content) was -19.1% and the inhibition at 500 mg/kg ([14]; Rattus norvegicus, 500 mg/kg, read-out: % inhibition compared to the control, Total acid content) was 16.5%. It also gave an inhibition at 1000 mg/kg ([14]; Rattus norvegicus, 1000 mg/kg, + = increase, - = decrease, read-out: % inhibition compared to the control, Gastric juice) of -14%, a Percent change from control (+ = increase, - = decrease) at 1000 mg/kg ([14]; Rattus norvegicus, 1000 mg/kg, p < 0.05, read-out: % inhibition compared to the control, Free acid content) of -58.1% and an inhibition at 1000 mg/kg ([14]; Rattus norvegicus, 1000 mg/kg, read-out: % inhibition compared to the control, Total acid content) of -20.1%. The “Effect on gastric secretion (in words)” value ([14]; doses 250-1000 mg/kg) was “did not change the gastric secretion except in very high doses”, the ED50 [1] was 141 mg/kg and the pIC50 [5] was 7.00. For the same compound, the “Antipyretic activity (in words)” value [10] was “significant antipyretic activity”, the “Decrease in body temperature” value ([10]; 100 mg/kg p.o., 1 hour following treatment) was 1.5 °C and the “Decrease in body temperature” value ([10]; 100 mg/kg p.o., 3 hours following treatment) was 2.0 °C. The “Decrease in body temperature” value ([10]; 100 mg/kg p.o., 5 hours following treatment) was 1.7 °C, the “Decrease in body temperature” value [10, 15] was 1.5 °C and the “Decrease in body temperature” value [10, 16] was 2.4 °C. For the same compound, the “Decrease in body temperature” value [10, 17] was 1.6 °C and the ED50 [6] was 36 mg/kg.
